{
  "source": "patent US7960551B2",
  "about": "“Compound” (Glaxo Group Limited, priority 2007, dated 2011)",
  "assay": "Dynamic Vapour Sorption (DVS) assessment",
  "assay_type": "physicochemical",
  "description": "A Dynamic Vapour Sorption (DVS) profile of Form 1 was obtained using an SMS DVS-1 with water as a reagent at 25° C. 20-30 mg of sample were placed in a glass bulb and equilibrated at 30% RH. The % RH was increased to 90% in 10% steps.",
  "note": "Where a name gives a salt, the structure may show the parent alone.",
  "data": [
    {"smiles": "COc1cc(NC(=O)CCN2CCC(OC(=O)Nc3ccccc3-c3ccccc3)CC2)c(Cl)cc1CNC[C@H](O)c1ccc(O)c2[nH]c(=O)ccc12", "note": "[Form 1, Biphenyl-2-ylcarbamic Acid 1-[2-(2-Chloro-4-{[(R)-2-hydroxy-2-(8-hydroxy-2-oxo-1,2-dihydroquinolin-5-yl)ethylamino]methyl}-5-methoxyphenylcarbamoyl)-ethyl]piperidin-4-yl Ester Succinic Acid Salt (Form 1)]", "values": [
      {"measurement": "deliquescence", "setting": "exposed to atmospheric moisture / DVS profile", "result": "not to be deliquescent"},
      {"measurement": "weight gain (hygroscopicity)", "setting": "humidity range of 30% relative humidity to 90% relative humidity, water, 25° C.", "result": "less than 2.0%"},
      {"measurement": "sorption/desorption profile", "setting": "two sorption/desorption cycles, 0-90% RH in 10% steps, 25° C.", "result": "reversible"}
    ]}
  ]
}
